Measured values published in US20050214744A1, “New mutational profiles in hiv-1 reverse transcriptase correlated with phenotypic drug resistance” (priority 2002, published 2005).

Columns and labels:
HIV-1/LAI = experiment: Antiviral activity against wild-type strain in acutely infected MT4 cells; assay type: cell-based; settings: for EC50: Human immunodeficiency virus 1, table prints no unit (EC50 in μM), read-out: Median EC50
Method: (§1) Determination of the antiviral activity of a compound was done as described in Pauwels R. et al. (J Virol Methods 1988; 20(4):309-21). Various concentrations of the test compounds were brought into each well of a flat-bottom microtiter plate. Subsequently, HIV and MT4 cells were added to a final concentration of 200-250 50% cell culture infectious doses (CCID50)/well and 30,000 cells/well, respectively. After 5 days of incubation (37° C., 5% CO2), the cytopathic effect of the replicating virus was determined by the tetrazolium colorimetric MTT method. The dose protecting 50% of the cells from virus cytopathic effect was defined as the EC50, while the dose achieving 90% protection was defined as the EC90. Reporter gene assay The reporter gene assay used MT4-LTR-EGFP cells. Upon infection by HIV-1, the expression of the viral tat product increases transcription from the HIV-1 LTR promoter, leading to high-level expression of the reporter gene product. The assay procedure was similar to the CPE assay, except for the end reading of the assay, which was performed on day 3 by measuring the relative fluorescence of treated cultures and comparing this with the relative fluorescence of untreated cultures. The EC50 or the EC90 of a compound was defined as the concentration that inhibited the relative fluorescence by 50% or 90% respectively.
(§2) Cells are infected at a high MOI (such as 1-50 CCID50/cell), corresponding to >10^9 viral RNA copies/ml. These experiments have been designed to mimic the quasi-species variability that is observed in HIV infected individuals where 10^9 to 10^10 new viruses are produced daily with a mutation rate of 10^−4 to 10^−5. The infected MT4-LTR-EGFP cells are treated with inhibitors at 40, 200 nM, 1 μM and higher for a maximum of 30 days. The cultures are sub-cultivated and scored on virus-induced fluorescence and cytopathicity every 3-4 days. If full virus breakthrough (100% CPE) is observed the supernatants was collected and stored (new virus strain). If no full CPE was observed the cells were sub-cultivated and further grown in the presence of the same concentration compound till full virus breakthrough, with a maximum of 30 days. From the emerging virus populations a virus stock was grown in the absence of compounds and titrated. The sensitivities of the isolated strains to HIV-1 RT inhibitors were determined and the strains were genotyped.
(§3) In vitro drug selection experiments starting from wild-type HIV-1/LAI under pressure of compound 1 have been performed.

SM26 (K103N, Y181C) [1] = experiment: Antiviral activity against starting strain SM26 in acutely infected MT4 cells; assay type: cell-based, HIV-1; settings: for EC50: Human immunodeficiency virus 1, no selecting compound, unit inferred, read-out: Median EC50; for FC (fold change in resistance, ratio of EC50 vs wild type): no selecting compound
Method: as §1, §2, §3

[2] = test system: SM26-derived strain K103N, Y181C, E194E/K; experiment: Antiviral activity against strain selected with compound 1 0.040 μM, acutely infected MT4 cells; assay type: cell-based, HIV-1; settings: SM26 selected with Compound 1 0.040 μM, breakthrough day 7, additional E194E/K; for EC50: Human immunodeficiency virus 1, MT4, 168 h, unit inferred, read-out: Median EC50
Method: as §1, §2, §3

[3] = test system: SM26-derived strain K103N, Y181C, L100I, V189V/I, E194G/E; experiment: Antiviral activity against strain selected with compound 1 0.200 μM (day 7), acutely infected MT4 cells; assay type: cell-based, HIV-1; settings: SM26 selected with Compound 1 0.200 μM, breakthrough day 7, additional L100I; for EC50: Human immunodeficiency virus 1, MT4, 168 h, unit inferred, read-out: Median EC50
Method: as §1, §2, §3

[4] = test system: SM26-derived strain K103N, Y181C, L100I, E194G; experiment: Antiviral activity against strain selected with compound 1 1.000 μM (day 11), acutely infected MT4 cells; assay type: cell-based, HIV-1; settings: SM26 selected with Compound 1 1.000 μM, breakthrough day 11, additional L100I; for EC50: Human immunodeficiency virus 1, MT4, 264 h, unit inferred, read-out: Median EC50
Method: as §1, §2, §3

[5] = test system: SM26-derived strain K103N, Y181C, L100I, V189V/I, E194G/E, R356R/K; experiment: Antiviral activity against strain selected with compound 1 0.200 μM (day 9), acutely infected MT4 cells; assay type: cell-based, HIV-1; settings: SM26 selected with Compound 1 0.200 μM, breakthrough day 9, additional L100I; for EC50: Human immunodeficiency virus 1, MT4, 216 h, unit inferred, read-out: Median EC50
Method: as §1, §2, §3

[6] = test system: SM26-derived strain K103N, Y181C, L100I, V189I, E194G; experiment: Antiviral activity against strain selected with compound 1 1.000 μM (day 13), acutely infected MT4 cells; assay type: cell-based, HIV-1; settings: SM26 selected with Compound 1 1.000 μM, breakthrough day 13, additional L100I; for EC50: Human immunodeficiency virus 1, MT4, 312 h, unit inferred, read-out: Median EC50
Method: as §1, §2, §3

SM26 (K103N, Y181C) [7] = experiment: In vitro selection of resistant strains at high MOI (virus breakthrough); assay type: cell-based, HIV-1

Row | SMILES | FC (fold change in resistance, ratio of EC50 vs wild type) (HIV-1/LAI) | EC50 (HIV-1/LAI) [µM] | EC50 (SM26 (K103N, Y181C) [1]) [nM] | FC (fold change in resistance, ratio of EC50 vs wild type) (SM26 (K103N, Y181C) [1]) | EC50 [2] [nM] | FC (fold change in resistance, ratio of EC50 vs wild type) [2] | EC50 [3] [nM] | FC (fold change in resistance, ratio of EC50 vs wild type) [3] | EC50 [4] [nM] | FC (fold change in resistance, ratio of EC50 vs wild type) [4] | EC50 [5] [nM] | FC (fold change in resistance, ratio of EC50 vs wild type) [5] | EC50 [6] [nM] | FC (fold change in resistance, ratio of EC50 vs wild type) [6] | Days to breakthrough (SM26 (K103N, Y181C) [7]; 0.040 μM, selected E194E/K) | Days to breakthrough (SM26 (K103N, Y181C) [7]; 0.200 μM (first culture), selected L100I, V189V/I, E194G/E) | Days to breakthrough (SM26 (K103N, Y181C) [7]; 0.200 μM (second culture), selected L100I, V189V/I, E194G/E, R356R/K) | Days to breakthrough (SM26 (K103N, Y181C) [7]; 1.000 μM (first culture), selected L100I, E194G) | Days to breakthrough (SM26 (K103N, Y181C) [7]; 1.000 μM (second culture), selected L100I, V189I, E194G)
1 | Cc1ccnc2c1NC(=O)c1cccnc1N2C1CC1 [Nevirapine] | 1 | 0.0763 | > 10000 | >131 | > 10000 | >131 | > 10000 | >131 | > 10000 | >131 | > 10000 | >131 | > 10000 | >131 | – | – | – | – | –
2 | Cc1cc(C#N)cc(C)c1Oc1nc(Nc2ccc(C#N)cc2)nc(N)c1Br [Compound 1, Benzonitrile, 4-[[6-amino-5-bromo-2-[(4-cyanophenyl)-amino]-4-pyrimidinyl]oxy]-3,5-dimethyl-] | 1 | 0.0014 | 5 | 4 | 7.8 | 6 | 149 | 106 | 668 | 477 | 26.8 | 19 | 261 | 187 | day 7 | day 7 | day 9 | day 11 | day 13
3 | O=C1Nc2ccc(Cl)cc2[C@@](C#CC2CC2)(C(F)(F)F)O1 [Efavirenz] | 1 | 0.001 | 36.7 | 37 | 32.7 | 33 | 2750 | 2.747 | 6730 | – | 56.5 | 57 | 3600 | 3.595 | – | – | – | – | –
